In patent US5344831A, “Diazabicyclo derivatives” (Nisshin Flour Milling Co., Ltd., priority 1992, dated 1994):
Where a name gives a salt, the structure may show the parent alone.

System: 5-HT3 receptors
Experiment: antagonism of the von Bezold-Jarisch reflex (bradycardia) induced by 5-HT in the anaesthetised rat
Type: in vivo
Details: 5-HT 30 μg/kg given 5 min later, tested as hydrochloride salts
Experimental: Temporary bradycardia is induced by administration of 5-HT (serotonin) to anaesthetised rats via jugular vein (yon Bezold Jarisch Reflex) (A. S. Paintal, Physiol. Rev., 53, 159-210 (1973 ) ).
The compounds of the present invention were evaluated for antagonism of the yon Bezold-Jarisch reflex induced by 5-HT in the anaesthetised rat according to the following method.
Rats were anaesthetised with urethane (1 g/kg, intraperitoneally ) and blood pressure and heart rate recorded from left femoral artery. Percent inhibition was calculated from bradycardia induced by 5-HT (30 μg/kg ) given 5 minutes following intrajugular administration of a compound of the invent ion, taking the bradycardia induced by the intrajugular administration of 5-HT. The compounds of the present invention were tested in the form of their hydrochloride salts.

| Compound | Percent Inhibition (0.01 μg/kg i.v.) [%] | Percent Inhibition (0.1 μg/kg i.v.) [%] | Percent Inhibition (1.0 μg/kg i.v.) [%] | Percent Inhibition (10 μg/kg i.v.) [%] |
| --- | --- | --- | --- | --- |
| C=CCn1nc(C(=O)N[C@@H]2C[C@@H]3CN(C)C[C@H](C2)N3C)c2ccccc21 [Example 2, endo-3,9-Dimethyl-3,9-diazabicyclo[3.3.1]non-7-yl 1-allylindazole-3-carboxamide hydrochloride] | 11 | 86 |  |  |
| CN1C[C@H]2C[C@@H](NC(=O)c3nn(CC4CCCCC4)c4ccccc34)C[C@@H](C1)N2C [Example 3, endo-3,9-Dimethyl-3,9-diazabicyclo[3.3.1]non-7-yl 1-cyclohexylmethylindazole-3-carboxamide] |  | 13 | 70 |  |
| CN1C[C@H]2C[C@@H](NC(=O)c3nn(CC4CC4)c4ccccc34)C[C@@H](C1)N2C [Example 4] |  | 60 |  |  |
| COc1ccc(Cn2nc(C(=O)N[C@@H]3C[C@@H]4CN(C)C[C@H](C3)N4C)c3ccccc32)cc1 [Example 5] |  | 29 | 44 | 91 |
| C=CCCCCCCn1nc(C(=O)N[C@@H]2C[C@@H]3CN(C)C[C@H](C2)N3C)c2ccccc21 [Example 6, endo-3,9-Dimethyl-3,9-diazabicyclo[3.3.1]non-7-yl 1-(7octenyl) indazole-3-carboxamide] |  | 19 | 35 | 87 |
| C#CCn1nc(C(=O)N[C@@H]2C[C@@H]3CN(C)C[C@H](C2)N3C)c2ccccc21 [Example 7, endo-3,9-Dimethyl-3,9-diazabicyclo[3.3-1]non-7-Yl 1-(2propynyl) indazole-3-carboxamide] |  | 30 | 83 |  |
| CC(C)=CCn1nc(C(=O)N[C@@H]2C[C@@H]3CN(C)C[C@H](C2)N3C)c2ccccc21 [Example 8, endo-3,9-Dimethyl-3,9-diazabicyclo[3.3.1]non-7-yl 1-(3-methyl-2-butenyl) indazole-3-carboxamide] |  | 48 | 100 |  |
| CN1C[C@H]2C[C@@H](NC(=O)c3nn(Cc4ccc([N+](=O)[O-])cc4)c4ccccc34)C[C@@H](C1)N2C [Example 9, endo-3,9-Dimethyl-3,9-diazabicyclo[3.3.1]non-7-yl 1-(4nitrobenzyl) indazole-3-carboxamide] | 14 | 41 | 96 |  |
| CN1C[C@H]2C[C@@H](NC(=O)c3nn(CC#N)c4ccccc34)C[C@@H](C1)N2C [Example 10, endo-3,9-Dimethyl-3,9-diazabicyclo[3.3.1]non-7-yl 1-cyanomethylindazole-3-carboxamide] |  | 37 | 100 |  |
| CN1C[C@H]2C[C@@H](NC(=O)c3nn(Cc4ccc(C(C)(C)C)cc4)c4ccccc34)C[C@@H](C1)N2C [Example 11, endo-3,9-Dimethyl-3,9-diazabicyclo[3.3.1]non-7-yl 1-(4-tert-butylbenzyl) indazole-3-carboxamide] |  | 39 | 53 |  |
| CC(=O)Cn1nc(C(=O)N[C@@H]2C[C@@H]3CN(C)C[C@H](C2)N3C)c2ccccc21 [Example 12, endo-3,9-Dimethyl-3,9-diazabicyclo[3.3.1]non-7-yl 1-(2-oxopropyl) indazole-3-carboxamide] | 45 | 57 | 72 |  |
| CN1C[C@H]2C[C@@H](NC(=O)c3nn(Cc4cccc(Cl)c4)c4ccccc34)C[C@@H](C1)N2C [Example 13, endo-3,9-Dimethyl-3,9-diazabicyclo[3.3.1]non-7-yl 1-(3-chlorobenzyl)indazole-3-carboxamide] |  | 27 | 71 |  |
